Test results published in paper PMC2872082 (Journal of the American Chemical Society, 2010).

Molecular target: T1, MshA (CgMshA) (Corynebacterium glutamicum, UniProt Q8NTA6)
T1 sequence (Q8NTA6 1-418): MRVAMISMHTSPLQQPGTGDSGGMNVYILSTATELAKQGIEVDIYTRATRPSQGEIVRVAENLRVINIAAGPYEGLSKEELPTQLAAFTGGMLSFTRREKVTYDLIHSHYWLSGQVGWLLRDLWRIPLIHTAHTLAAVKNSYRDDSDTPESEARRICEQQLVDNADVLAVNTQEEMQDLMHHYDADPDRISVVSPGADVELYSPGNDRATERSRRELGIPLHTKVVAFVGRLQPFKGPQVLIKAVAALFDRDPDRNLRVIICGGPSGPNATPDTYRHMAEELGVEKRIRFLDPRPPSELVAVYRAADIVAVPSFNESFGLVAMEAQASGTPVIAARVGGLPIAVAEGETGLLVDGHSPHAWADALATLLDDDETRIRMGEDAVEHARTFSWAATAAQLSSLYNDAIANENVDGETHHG
Test: steady-state enzyme inhibition kinetics and slow-binding progress curves
Type: biochemical

Compound `CC(=O)N[C@H]1[C@@H](OP(=O)(O)OP(=O)(O)OC[C@H]2O[C@@H](n3ccc(=O)[nH]c3=O)[C@H](O)[C@@H]2O)O[C@](F)(CO)[C@@H](O)[C@@H]1O` [UDP-(5F)-GlcNAc] has a Ki of 1.4 ± 0.2 µM.
